Results from patent US20210059963A1, “Beta-blockers for treating and/or preventing pathological scars” (GENEPRED BIOTECHNOLOGIES, priority 2017, published 2021).

Tests used:
Assay type in all cases: in vivo, human
[1] = system: patients with keloid scars; experiment: Effect of propranolol on itching associated with keloids (patient report)
Description: (§1) During a clinical evaluation and treatment of subjects infected with Schistosoma mansoni in Uganda, the inventors used propranolol to lower portal blood pressure in subjects with severe liver disease (hepatic fibrosis) and splenomegaly. High portal blood pressure causes the development of oesophageal varices and variceal bleedings that are the principal cause of death in S.mansoni-infected subjects. Propranolol is currently used to reduce the risk of variceal bleedings because that drug has blocking effects on beta receptors of the nervous system, thus reducing portal pressure. Five to ten percent of the 5000 fishermen and fisher women of the study had haemorrhagic bleedings from oesophageal varices or were at risk of bleeding. In an attempt to reduce bleedings, propranolol was given to them by the oral route, one 40 mg pill per day. This molecule has little side effects and can be prescribed safely for very long periods excepted to asthmatic subjects and to patients with cardiac problems.
(§2) During the study, one of the patients had mentioned that their keloid scars were not itching any more since they were treated for high portal pressure. This prompted the inventors to check whether this effect had also been noticed by other patients under the same treatment. The data presented here, have been obtained on 30 of these patients, they were collected from 30 out of 60 patients who had received this same treatment because of a high risk of variceal bleedings. The remaining 30 patients were not available, at that time, for evaluation of the propranolol effects.
(§3) Keloid Grading: Patient keloid scars were classified as low, intermediate or high severity.
(§4) Low severity corresponded to one or two scars on any part of the body, intermediate severity corresponded to various scars (including large cordons) on at least 3 different part of the body. Severe grades keloids combined extended large patches and many long and large scars on different part of the body.
(§5) Statistical analysis was performed using the SPSS software. The effects of the treatment were tested with the nonparametric Wlcoxon test performed on paired data (before and after treatment). P values were calculated for a two sided test.

[2] = system: patients with keloid scars; experiment: Effect of propranolol on pain associated with keloids (patient report)
Description: as §1, §2, §3, §4, §5

[3] = system: patients with keloid scars; experiment: Overall evaluation of the effect of the treatment on patient clinical conditions
Description: as §1, §2
The proposed answers were: a lot of improvement, much improvement, a little improvement and no improvement. […] Only one answer per patient was accepted. Forty four (44.8%) and twenty seven (27.6%) percent of the patients estimated that the treatment had improved either much or a lot their condition, respectively.

[4] = Global 1 + 2, 40 mg per day for 2 to 4 days, oral
[5] = Global 1 + 2, 40 mg per day for 2 to 4 days, oral, listed as propranol
[6] = Itching prior to Treatment 1, oral 40 mg per day
[7] = Itching prior to Treatment 2, oral 40 mg per day
[8] = share of patients with this effect who had Itching prior to Treatment 1
[9] = share of patients with this effect who had Itching prior to Treatment 2
[10] = Global 1 + 2, oral 40 mg per day
[11] = Pain Prior to Propranolol 1, oral 40 mg per day
[12] = Pain Prior to Propranolol 2, oral 40 mg per day
[13] = share of patients with this effect who had Pain Prior to Propranolol 1
[14] = share of patients with this effect who had Pain Prior to Propranolol 2

Compound: CC(C)NCC(O)COc1cccc2ccccc12 (centres unmarked) [propranolol]
- Effect of Propranolol on Itching: none, % in 1 + 2 [1, 4]: 20.0%
- Effect of Propranolol on Itching: partial (marked reduction), % in 1 + 2 [1, 4]: 56.7%
- Effect of Propranolol on Itching: total, % in 1 + 2 [1, 4]: 23.3%
- Effect of Propranolol on Itching: none, % in 1 + 2 [1, 5]: Twenty
- Effect of Propranolol on Itching: total, % in 1 + 2 [1, 5]: 23.6%
- Effect of Propranolol on Itching: none, % in 1 [1, 6]: 0.0%
- Effect of Propranolol on Itching: partial, % in 1 [1, 6]: 80.0%
- Effect of Propranolol on Itching: total, % in 1 [1, 6]: 20.0%
- Effect of Propranolol on Itching: none, % in 2 [1, 7]: 30.0%
- Effect of Propranolol on Itching: partial, % in 2 [1, 7]: 45.0%
- Effect of Propranolol on Itching: total, % in 2 [1, 7]: 25.0%
- treated patients confirming that oral administration reduced keloid scar itching ([1]; oral administration, 30 patients): 80%
- effect of the treatment on itching as a function of keloid grades ([1]; patients with all keloid grades (low, intermediate, high), FIG. 1): reduced
- Effect of Propranolol on Itching: none, % in none/partial/total [1, 8]: 0%
- Effect of Propranolol on Itching: partial, % in none/partial/total [1, 8]: 47.1%
- Effect of Propranolol on Itching: total, % in none/partial/total [1, 8]: 28.6%
- Effect of Propranolol on Itching: none, % in none/partial/total [1, 9]: 100%
- Effect of Propranolol on Itching: partial, % in none/partial/total [1, 9]: 52.9%
- Effect of Propranolol on Itching: total, % in none/partial/total [1, 9]: 71.4%
- study subjects reporting no effects of the treatment on keloid associated pain [2]: 20%
- study subjects reporting reduction of the pain [2]: 56.7%
- Effects of Propranolol on Pain: Total, % in 1 + 2 [2, 10]: 29.2%
- Effects of Propranolol on Pain: none, % in 1 + 2 [2, 10]: 25.0%
- Effects of Propranolol on Pain: partial, % in 1 + 2 [2, 10]: 45.8%
- Effects of Propranolol on Pain: Total, % in 1 [2, 11]: 35.7%
- Effects of Propranolol on Pain: none, % in 1 [2, 11]: 28.6%
- Effects of Propranolol on Pain: partial, % in 1 [2, 11]: 35.7%
- Effects of Propranolol on Pain: Total, % in 2 [2, 12]: 20.0%
- Effects of Propranolol on Pain: none, % in 2 [2, 12]: 20.0%
- Effects of Propranolol on Pain: partial, % in 2 [2, 12]: 60.0%
- study subjects reporting a total abolition of pain ([2]; for at least 2 to 3 days): 23.3%
- effect of the treatment on pain as a function of keloid grades ([2]; patients with all keloid grades (low, intermediate, high), FIG. 2): reduced
- Effects of Propranolol on Pain: Total, % in none/partial/total [2, 13]: 71.4%
- Effects of Propranolol on Pain: none, % in none/partial/total [2, 13]: 66.7%
- Effects of Propranolol on Pain: partial, % in none/partial/total [2, 13]: 45.5%
- Effects of Propranolol on Pain: Total, % in none/partial/total [2, 14]: 28.6%
- Effects of Propranolol on Pain: none, % in none/partial/total [2, 14]: 33.3%
- Effects of Propranolol on Pain: partial, % in none/partial/total [2, 14]: 54.5%
- patients estimating that the treatment had improved a lot their condition ([3]; answer: a lot of improvement, FIG. 3): 27.6%
- patients estimating that the treatment had improved much their condition ([3]; answer: much improvement, FIG. 3): 44.8%
- patients who felt that the treatment had clearly improved their clinical status ([3]; total of much and a lot of improvement): 72.4%
